From patent US20110098296A1, “Thiazole And Oxazole Kinase Inhibitors” (priority 2007, published 2011)
Where a name gives a salt, the structure may show the parent alone.

Columns and labels:
ErbB2 = biological target: T1, ErbB2 (Homo sapiens, UniProt P04626); experiment: ErbB-2 substrate phosphorylation assay (HTRF); type: biochemical; conditions: Method (A): Enzyme Mix incubated with compound at 20° C. for 1 hr, reaction started by adding Substrate Mix
T1 construct: made in house; host or cells: baculovirus expression system
T1 sequence (P04626 23-1255): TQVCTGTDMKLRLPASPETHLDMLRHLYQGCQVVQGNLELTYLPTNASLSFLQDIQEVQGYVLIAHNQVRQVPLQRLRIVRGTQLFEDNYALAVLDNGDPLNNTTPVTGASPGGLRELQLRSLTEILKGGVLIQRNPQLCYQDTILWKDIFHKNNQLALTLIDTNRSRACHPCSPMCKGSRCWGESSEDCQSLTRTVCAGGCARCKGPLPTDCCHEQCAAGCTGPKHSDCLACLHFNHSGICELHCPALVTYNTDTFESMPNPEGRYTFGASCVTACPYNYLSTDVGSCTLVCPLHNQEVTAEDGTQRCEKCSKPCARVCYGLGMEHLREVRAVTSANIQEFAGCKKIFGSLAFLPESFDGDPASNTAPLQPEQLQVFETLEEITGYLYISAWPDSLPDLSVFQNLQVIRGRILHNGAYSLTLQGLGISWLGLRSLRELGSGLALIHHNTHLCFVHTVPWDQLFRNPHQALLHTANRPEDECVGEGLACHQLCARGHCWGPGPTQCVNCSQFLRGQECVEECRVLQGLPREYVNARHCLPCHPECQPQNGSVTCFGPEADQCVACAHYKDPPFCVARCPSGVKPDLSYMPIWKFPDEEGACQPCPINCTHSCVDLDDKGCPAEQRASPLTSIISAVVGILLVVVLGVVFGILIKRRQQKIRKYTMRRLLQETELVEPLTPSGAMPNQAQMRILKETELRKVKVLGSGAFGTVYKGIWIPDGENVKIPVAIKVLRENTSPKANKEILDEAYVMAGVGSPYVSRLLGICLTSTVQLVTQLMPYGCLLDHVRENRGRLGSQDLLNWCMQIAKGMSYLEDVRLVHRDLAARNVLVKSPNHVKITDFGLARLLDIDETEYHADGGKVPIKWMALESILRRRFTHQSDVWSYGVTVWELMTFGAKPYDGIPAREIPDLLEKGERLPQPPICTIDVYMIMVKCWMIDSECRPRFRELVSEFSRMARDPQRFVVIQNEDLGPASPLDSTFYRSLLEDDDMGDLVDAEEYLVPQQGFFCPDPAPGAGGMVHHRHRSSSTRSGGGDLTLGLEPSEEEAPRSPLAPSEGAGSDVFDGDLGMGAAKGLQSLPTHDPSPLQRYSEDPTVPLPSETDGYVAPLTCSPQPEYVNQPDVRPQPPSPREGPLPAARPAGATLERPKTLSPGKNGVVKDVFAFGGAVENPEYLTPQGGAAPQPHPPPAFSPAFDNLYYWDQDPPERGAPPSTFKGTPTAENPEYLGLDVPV
Outline: (§1)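 Baculovirus-expressed kinase (0.8 nM EGFR or 10 nM ErbB2 in enzyme mix) with Peptide C 0.8 μM and ATP 20 μM (substrate-mix levels), MOPS pH 7.5, MnCl2; 90 min, 20 °C, HTRF anti-phosphotyrosine. Method A adds 1 h enzyme–compound preincubation; B none. pIC50, final compound 0.00027–47.6 μM.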

HN5 tumor cells [1] = experiment: Method B: CellTiter-Glo Growth Inhibition Assay, HN5; type: cell-based; conditions: Homo sapiens, 72 h, 3 days
Experimental: (§2) Human breast tumor cells (BT474) were cultured in RPMI, (Invitrogen, 22400) containing 10% fetal bovine serum (FBS). Human head and neck tumor cells (HN5) were cultured in low glucose DMEM (Invitrogen, 12320) containing 10% FBS. Human colon tumor cells (Colo205) were cultured in DMEM (Invitrogen, 10564) containing 10% FBS. Human melanoma cancer cells (SK-MEL-28) were incubated in DMEM (Invitrogen). All cell lines were maintained at 37° C. in a humidified 5% CO2, 95% air incubator. Cells were harvested using trypsin/EDTA, counted using a haemocytometer, and plated in 30 μL of the appropriate media described above, at the following densities, in a half-area, black-walled, 96-well tissue culture plate (Corning 3882): BT474 3,000 cells/well, HN5 500 cells/well, Colo205 3,000 cells/well, and SK-MEL-28 500 cells/well). The next day, compounds were diluted in DMEM containing […] gentamicin, from 10 mM stock solutions in DMSO. 30 μL/well of these dilutions were added to the 30 μL/well of media currently on the cell plates. Medium containing 0.6% DMSO was added to control wells. The final concentration of DMSO in all wells was 0.3%. Cells were incubated at 37° C., 5% CO2 for 3 days. Cell biomass was estimated using CellTiter-Glo® reagent (Promega G7571). Briefly, plates were removed from the incubator and allowed to equilibrate to rt for 30 minutes. 25-60 μL of CellTiter-Glo® reagent were added to each well of the treated cells and plates were shaken on an orbital plate shaker for 2 mins. Plates were incubated without shaking for 30 more mins and read in a luminometer with an integration time of 0.5 seconds per well. Percent inhibition of cell growth was calculated relative to vehicle-treated control wells. Concentration of compound that inhibits 50% of vehicle control cell growth (IC50) was interpolated using nonlinear regression (Levenberg-Marquardt) and the equation, y=V max*(1−(x/(K+x)))+Y2, where “K” was equal to the IC50.

EGFR = biological target: T2, EGFR (Homo sapiens, UniProt P00533); experiment: EGFR substrate phosphorylation assay (HTRF); type: biochemical; conditions: Method (A): Enzyme Mix incubated with compound at 20° C. for 1 hr, reaction started by adding Substrate Mix
T2 construct: made in house; host or cells: baculovirus expression system
T2 sequence (P00533 25-1210): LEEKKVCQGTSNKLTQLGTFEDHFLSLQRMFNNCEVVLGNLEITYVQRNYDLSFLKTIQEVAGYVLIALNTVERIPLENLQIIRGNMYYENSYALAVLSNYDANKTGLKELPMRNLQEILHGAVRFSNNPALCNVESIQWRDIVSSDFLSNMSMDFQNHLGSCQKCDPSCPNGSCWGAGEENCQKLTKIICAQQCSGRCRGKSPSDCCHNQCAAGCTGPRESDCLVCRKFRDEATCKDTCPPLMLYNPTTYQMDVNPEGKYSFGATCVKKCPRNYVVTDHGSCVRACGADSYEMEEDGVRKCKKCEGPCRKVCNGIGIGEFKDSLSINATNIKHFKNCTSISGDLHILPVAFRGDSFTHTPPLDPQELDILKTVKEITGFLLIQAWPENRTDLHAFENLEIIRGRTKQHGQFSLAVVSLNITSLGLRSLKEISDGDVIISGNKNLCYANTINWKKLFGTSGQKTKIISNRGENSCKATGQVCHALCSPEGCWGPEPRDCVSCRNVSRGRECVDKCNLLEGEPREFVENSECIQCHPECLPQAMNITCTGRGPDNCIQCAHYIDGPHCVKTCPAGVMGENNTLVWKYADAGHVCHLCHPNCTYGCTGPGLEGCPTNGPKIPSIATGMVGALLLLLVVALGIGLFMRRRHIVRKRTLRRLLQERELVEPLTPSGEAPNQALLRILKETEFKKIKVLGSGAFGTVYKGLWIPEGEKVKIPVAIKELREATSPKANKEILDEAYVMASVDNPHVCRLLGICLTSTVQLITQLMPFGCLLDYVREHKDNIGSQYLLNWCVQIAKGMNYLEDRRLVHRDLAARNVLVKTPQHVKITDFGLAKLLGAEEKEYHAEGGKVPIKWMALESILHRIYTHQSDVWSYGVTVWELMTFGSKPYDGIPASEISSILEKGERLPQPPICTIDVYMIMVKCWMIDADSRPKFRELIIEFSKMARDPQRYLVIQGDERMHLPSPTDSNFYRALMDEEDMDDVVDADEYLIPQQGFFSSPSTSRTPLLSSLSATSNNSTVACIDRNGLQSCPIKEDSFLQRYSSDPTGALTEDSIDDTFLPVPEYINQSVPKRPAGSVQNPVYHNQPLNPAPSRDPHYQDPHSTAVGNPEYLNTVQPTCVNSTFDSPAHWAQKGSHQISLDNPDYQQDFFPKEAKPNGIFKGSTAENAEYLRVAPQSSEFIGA
Outline: as §1

Colo205 tumor cells [2] = experiment: Method B: CellTiter-Glo Growth Inhibition Assay, Colo205; type: cell-based; conditions: Homo sapiens, COLO 205, 72 h, 3 days
Experimental: as §2

BT474 tumor cells [3] = experiment: Method B: CellTiter-Glo Growth Inhibition Assay, BT474; type: cell-based; conditions: Homo sapiens, BT-474, 72 h, 3 days
Experimental: as §2

BT474 tumor cells [4] = experiment: Method C: Cell Growth Inhibition Assay (CellTiter-Glo), BT474; type: cell-based; conditions: Homo sapiens, BT-474, 72 h, 3 days, 4-parameter fit
Colo205 tumor cells [5] = experiment: Method C: Cell Growth Inhibition Assay (CellTiter-Glo), Colo205; type: cell-based; conditions: Homo sapiens, COLO 205, 72 h, 3 days, 4-parameter fit
Outline: (§3)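 Cells plated at 500 cells/well, dosed next day with 10-point 1:3 dilution series (0.2% final DMSO) and grown 3 days at 37 °C, 5% CO2. CellTiter-Glo luminescence (total ATP) served as cell-number surrogate; inhibition relative to DMSO controls, IC50 interpolated by 4-parameter fit.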

SK-MEL-3 tumor cells = experiment: Method C: Cell Growth Inhibition Assay (CellTiter-Glo), SK-MEL-3; type: cell-based; conditions: Homo sapiens, SK-MEL3, 72 h, 3 days, 4-parameter fit
Outline: as §3

SK-MEL-28 tumor cells = experiment: Method C: Cell Growth Inhibition Assay (CellTiter-Glo), SK-MEL-28; type: cell-based; conditions: Homo sapiens, SK-MEL-28, 72 h, 3 days, 4-parameter fit
Outline: (§4)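 Plating at 500 cells/well is followed the next day by addition of compound as a 1:3 serial dilution series. After 3 days' incubation, CellTiter-Glo luminescence is read and IC50 is calculated versus DMSO wells.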

A375P F11s tumor cells = experiment: Method C: Cell Growth Inhibition Assay (CellTiter-Glo), A375P F11s; type: cell-based; conditions: Homo sapiens, 72 h, 3 days, 4-parameter fit
Outline: as §4

HT-29 tumor cells = experiment: Method C: Cell Growth Inhibition Assay (CellTiter-Glo), HT-29; type: cell-based; conditions: Homo sapiens, HT-29, 72 h, 3 days, 4-parameter fit
Outline: as §4

HN5 tumor cells [6] = experiment: Method C: Cell Growth Inhibition Assay (CellTiter-Glo), HN5; type: cell-based; conditions: Homo sapiens, 72 h, 3 days, 4-parameter fit
Outline: as §4

| IC50 (ErbB2) [nM] | IC50 (HN5 tumor cells [1]) [nM] | IC50 (EGFR) [nM] | IC50 (Colo205 tumor cells [2]) [nM] | IC50 (BT474 tumor cells [3]) [nM] | IC50 (BT474 tumor cells [4]) [nM] | IC50 (Colo205 tumor cells [5]) [nM] | IC50 (SK-MEL-3 tumor cells) [nM] | IC50 (SK-MEL-28 tumor cells) [nM] | IC50 (A375P F11s tumor cells) [nM] | IC50 (HT-29 tumor cells) [nM] | IC50 (HN5 tumor cells [6]) [nM] | SMILES |
| --- | --- | --- | --- | --- | --- | --- | --- | --- | --- | --- | --- | --- |
| < 100 | < 100 | < 100 | > 1000 | < 100 |  |  |  |  |  |  |  | Nc1nc(-c2cccc(NC(=O)c3c(F)cccc3F)c2)c(-c2ccnc(Nc3cccc(F)c3)n2)s1 [Example 7] |
| < 100 | < 100 | < 100 | 100 to 1000 | < 100 |  |  |  |  |  |  |  | Nc1nc(-c2cccc(NC(=O)c3c(F)cccc3F)c2)c(-c2ccnc(Nc3cccc(CCS(N)(=O)=O)c3)n2)s1 [Example 8] |
| < 100 | < 100 | < 100 | > 1000 | < 100 |  |  |  |  |  |  |  | Nc1nc(-c2cccc(NC(=O)c3c(F)cccc3F)c2)c(-c2ccnc(Nc3ccc4c(c3)OCC(=O)N4)n2)s1 [Example 9, hydrochloride] |
| < 100 | < 100 | < 100 | 100 to 1000 | < 100 |  |  |  |  |  |  |  | COc1ccc(Nc2nccc(-c3sc(N)nc3-c3cccc(NC(=O)c4c(F)cccc4F)c3)n2)cc1N(C)C [Example 19, N-{3-[2-Amino-5-(2-{[3-(dimethylamino)-4-(methyloxy)phenyl]amino}-4-pyrimidinyl)-1,3-thiazol-4-yl]phenyl}-2,6-difluorobenzamide] |
| < 100 | < 100 | < 100 | > 1000 | < 100 |  |  |  |  |  |  |  | Nc1nc(-c2cccc(NC(=O)c3c(F)cccc3F)c2)c(-c2ccnc(Nc3ccc4c(c3)NC(=O)CO4)n2)s1 [Example 20, N-[3-(2-Amino-5-{2-[(3-oxo-3,4-dihydro-2H-1,4-benzoxaziN-6-yl)amino]-4-pyrimidinyl}-1,3-thiazol-4-yl)phenyl]-2,6-difluorobenzamide] |
| < 100 | 100 to 1000 | < 100 | > 1000 | 100 to 1000 |  |  |  |  |  |  |  | O=C(Nc1cccc(-c2nc(NCCCN3CCOCC3)sc2-c2ccnc(Nc3cccc(F)c3)n2)c1)c1c(F)cccc1F [Example 30, 2,6-Difluoro-N-[3-(5-{2-[(3-fluorophenyl)amino]-4-pyrimidinyl}-2-{[3-(4-morpholinyl)propyl]amino}-1,3-thiazol-4-yl)phenyl]benzamide] |
| 100 to 1000 | 100 to 1000 | < 100 | > 1000 | 100 to 1000 |  |  |  |  |  |  |  | Nc1nc(-c2cccc(NC(=O)Cc3cccs3)c2)c(-c2ccnc(Nc3cccc(F)c3)n2)s1 [Example 64, N-[3-(2-Amino-5-{2-[(3-fluorophenyl)amino]-4-pyrimidinyl}-1,3-thiazol-4-yl)phenyl]-2-(2-thienyl)acetamide] |
| < 100 | 100 to 1000 | < 100 | 100 to 1000 | 100 to 1000 |  |  |  |  |  |  |  | COc1ccc(Nc2nccc(-c3scnc3-c3cccc(NC(=O)Cc4cccs4)c3)n2)cc1OCCN(C)C [Example 78, N-{3-[5-(2-{[3-{[2-(Dimethylamino)ethyl]oxy}-4-(methyloxy)phenyl]amino}-4-pyrimidinyl)-1,3-thiazol-4-yl]phenyl}-2-(2-thienyl)acetamide] |
| < 100 | 100 to 1000 | < 100 | 100 to 1000 | 100 to 1000 |  |  |  |  |  |  |  | CN(C)Cc1cccc(Nc2nccc(-c3scnc3-c3cccc(NC(=O)Cc4cccs4)c3)n2)c1 [Example 81] |
| < 100 | 100 to 1000 | < 100 | 100 to 1000 | 100 to 1000 |  |  |  |  |  |  |  | CCN(CC)CCOc1cccc(Nc2nccc(-c3scnc3-c3cccc(NC(=O)Cc4cccs4)c3)n2)c1 [Example 82, N-[3-(5-{2-[(3-{[2-(Diethylamino)ethyl]oxy}phenyl)amino]-4-pyrimidinyl}-1,3-thiazol-4-yl)phenyl]-2-(2-thienyl)acetamide] |
| < 100 | 100 to 1000 | < 100 | 100 to 1000 | < 100 |  |  |  |  |  |  |  | CN(C)C1Cc2ccc(Nc3nccc(-c4scnc4-c4cccc(NC(=O)Cc5cccs5)c4)n3)cc2C1 (centres unmarked) [Example 83, N-{3-[5-(2-{[2-(Dimethylamino)-2,3-dihydro-1H-inden-5-yl]amino}-4-pyrimidinyl)-1,3-thiazol-4-yl]phenyl}-2-(2-thienyl)acetamide] |
| < 100 | 100 to 1000 | < 100 | > 1000 | 100 to 1000 |  |  |  |  |  |  |  | O=C(Cc1cccs1)Nc1cccc(-c2ncsc2-c2ccnc(Nc3ccc4c(c3)OCC(=O)N4)n2)c1 [Example 85, N-[3-(5-{2-[(3-Oxo-3,4-dihydro-2H-1,4-benzoxazin-7-yl)amino]-4-pyrimidinyl}-1,3-thiazol-4-yl)phenyl]-2-(2-thienyl)acetamide hydrochloride] |
| 100 to 1000 | 100 to 1000 | < 100 | 100 to 1000 | 100 to 1000 |  |  |  |  |  |  |  | O=C(Cc1cccs1)Nc1cccc(-c2ncsc2-c2ccnc(Nc3ccc4c(c3)NC(=O)CO4)n2)c1 [Example 86, N-[3-(5-{2-[(3-Oxo-3,4-dihydro-2H-1,4-benzoxaziN-6-yl)amino]-4-pyrimidinyl}-1,3-thiazol-4-yl)phenyl]-2-(2-thienyl)acetamide hydrochloride] |
| < 100 |  | < 100 |  |  | < 100 | 100 to 1000 | 100 to 1000 | 100 to 1000 | 100 to 1000 | 100 to 1000 | < 100 | O=C(Nc1cccc(-c2nc(CO)sc2-c2ccnc(Nc3ccc(OCCN4CCCC4)c(F)c3)n2)c1)c1c(F)cccc1F [Example 126, 2,6-Difluoro-N-{3-[5-{2-[(3-fluoro-4-{[2-(1-pyrrolidinyl)ethyl]oxy}phenyl)amino]-4-pyrimidinyl}-2-(hydroxymethyl)-1,3-thiazol-4-yl]phenyl}benzamide] |
| < 100 |  | < 100 |  |  | 100 to 1000 | > 1000 | > 1000 | > 1000 | > 1000 | 100 to 1000 | 100 to 1000 | Cc1nc(-c2cccc(NC(=O)c3cc(F)ccc3F)c2)c(-c2ccnc(Nc3ccc(OCCN(C)C)c(F)c3)n2)s1 [Example 128, N-[3-(5-{2-[(4-{[2-(Dimethylamino)ethyl]oxy}-3-fluorophenyl)amino]-4-pyrimidinyl}-2-methyl-1,3-thiazol-4-yl)phenyl]-2,5-difluorobenzamide] |
| < 100 |  | < 100 |  |  | > 1000 | > 1000 | > 1000 | > 1000 | > 1000 | > 1000 | > 1000 | Cc1nc(-c2cccc(NC(=O)c3cccc(C(F)(F)F)c3)c2)c(-c2ccnc(Nc3ccc4c(c3)CN(C)CC4)n2)s1 [Example 131, N-[3-(2-Methyl-5-{2-[(2-methyl-1,2,3,4-tetrahydro-7-isoquinolinyl)amino]-4-pyrimidinyl}-1,3-thiazol-4-yl)phenyl]-3-(trifluoromethyl)benzamide] |
| < 100 |  | < 100 |  |  | 100 to 1000 | > 1000 | > 1000 | > 1000 | > 1000 | 100 to 1000 | 100 to 1000 | Cc1nc(-c2cccc(NC(=O)c3ccc(F)cc3)c2)c(-c2ccnc(Nc3ccc(OCCN(C)C)c(Cl)c3)n2)s1 [Example 134, N-[3-(5-{2-[(3-Chloro-4-{[2-(dimethylamino)ethyl]oxy}phenyl)amino]-4-pyrimidinyl}-2-methyl-1,3-thiazol-4-yl)phenyl]-4-fluorobenzamide] |
